Experimental data from patent US20180044738A1, “METHOD OF DIAGNOSING BREAST CANCER, MONITORING TREATMENT OF BREAST CANCER, AND TREATING BREAST CANCER” (University Of Cincinnati, priority 2016, published 2018).
Like-named read-outs stand apart in the source and are kept apart here.

System: Xenograft tumors
From the text: Xenograft tumors derived from luciferase-expressing MDA-MB-231 and SUM159 cells will be implanted orthotopically in female nude mice. […] Initial dose of the aptamers will follow the previous animal studies (weekly intra-tumoral injection; 2000 pmol each time delivered in 10 sub-injections). The optimal dose will be determined empirically based on the effect on tumor volumes. The lapatinib plus imatinib group will be used to compare the tumor suppression efficacy of drug treatment with the aptamers. […] Tumor volume will be measured weekly with a caliper, and also by an IVIS imaging system (Xenogen) which can reveal potential metastatic sites. Apoptosis will be assessed by TUNEL assay of the tumor tissues; proliferation will be assayed by in vivo BrdU incorporation analysis. Primary tumor with adjacent normal tissues will be examined by hematoxylin/eosin (H&E) staining. Tumor invasion will be assessed based on the extent of infiltration into surrounding tissues, the margins from surrounding tissues, and desomoplastic stromal reaction by smooth muscle actin staining. Human origin of the invasive cells will be confirmed by staining for human cytokeratin.

`Cc1ccc(NC(=O)c2ccc(CN3CCN(C)CC3)cc2)cc1Nc1nccc(-c2cccnc2)n1` [imatinib] was tested, and the tumor growth (mouse, in vivo, po, 100 mg/kg) was “not either drug alone”.

`CS(=O)(=O)CCNCc1ccc(-c2ccc3ncnc(Nc4ccc(OCc5cccc(F)c5)c(Cl)c4)c3c2)o1` [lapatinib] was tested, and the tumor growth (oral gavage, 100 mg/kg of each drug, in a month, preliminary results, data not shown) was “not either drug alone”.
